Active and inactive are the calls of the source. The rule behind the calls is not given here.
Test system: rodent carcinogenicity bioassays, tumor incidence
Experiment: CCRIS carcinogenicity studies
Outline: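 Archive of carcinogenicity, mutagenicity, tumor promotion and tumor inhibition results drawn from journals, NCI reports and other sources, expert-reviewed; covers 1985-2011 and is no longer updated.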

With `C=C(C)C(=O)OC` the carcinogen call (Species: HAMSTER, Strain/Sex: GOLDEN/FEMALE, Route: INHALATION, Dose: 0, 25, 100, 400 PPM IN AIR 6 HR/D 5 D/WK FOR 18 MO (STUDY DURATION: 78 WK), Dose: 0, 25, 100, 400 PPM IN AIR 6 HR/D 5 D/WK FOR 18 MO (STUDY DURATION: 78 WK)) was “inactive; negative”, the carcinogen call (Species: HAMSTER, Strain/Sex: GOLDEN/MALE, Route: INHALATION, Dose: 0, 25, 100, 400 PPM IN AIR 6 HR/D 5 D/WK FOR 18 MO (STUDY DURATION: 78 WK), Dose: 0, 25, 100, 400 PPM IN AIR 6 HR/D 5 D/WK FOR 18 MO (STUDY DURATION: 78 WK)) was “inactive; negative” and the carcinogen call (Species: MOUSE, Strain/Sex: B6C3F1/FEMALE, Route: INHALATION, Dose: 0, 500, 1000 PPM 6 HR/D, 5 D/WK FOR 102 WK, Dose: 0, 500, 1000 PPM 6 HR/D, 5 D/WK FOR 102 WK) was “inactive; negative”. The carcinogen call (Species: MOUSE, Strain/Sex: B6C3F1/MALE, Route: INHALATION, Dose: 0, 500, 1000 PPM 6 HR/D, 5 D/WK FOR 102 WK, Dose: 0, 500, 1000 PPM 6 HR/D, 5 D/WK FOR 102 WK) was “inactive; negative”, the carcinogen call (Species: RAT, Strain/Sex: F344/FEMALE, Route: INHALATION, Dose: 0, 25, 100, 400 PPM IN AIR 6 HR/D 5 D/WK FOR 24 MO (STUDY DURATION: 104-106 WK), Dose: 0, 25, 100, 400 PPM IN AIR 6 HR/D 5 D/WK FOR 24 MO (STUDY DURATION: 104-106 WK)) was “inactive; negative” and the carcinogen call (Species: RAT, Strain/Sex: F344/FEMALE, Route: INHALATION, Dose: 0, 250, 500 PPM 6 HR/D, 5 D/WK FOR 102 WK, Dose: 0, 250, 500 PPM 6 HR/D, 5 D/WK FOR 102 WK) was “inactive; negative”. The carcinogen call (Species: RAT, Strain/Sex: F344/MALE, Route: INHALATION, Dose: 0, 25, 100, 400 PPM IN AIR 6 HR/D 5 D/WK FOR 24 MO (STUDY DURATION: 104-106 WK), Dose: 0, 25, 100, 400 PPM IN AIR 6 HR/D 5 D/WK FOR 24 MO (STUDY DURATION: 104-106 WK)) was “inactive; negative” and the carcinogen call (Species: RAT, Strain/Sex: F344/MALE, Route: INHALATION, Dose: 0, 500, 1,000 PPM 6 HR/D, 5 D/WK FOR 102 WK, Dose: 0, 500, 1,000 PPM 6 HR/D, 5 D/WK FOR 102 WK) was “inactive; negative”.

With `OC(Cn1cncn1)(c1ccc(F)cc1)c1ccccc1F` (centres undefined) the carcinogen call (Species: Mouse, Strain/Sex: C57BL/10JfCD-1/Alpk (C57BL/10J)/Female (50/Group), Route: Oral, Dose: 0, 10, 50, 200 ppm (0; 1.5; 7.5; 30 mg/kg/day) of 93% flutriafol in diet for 2 yr, study duration 2 yr, Dose: 0, 10, 50, 200 ppm (0; 1.5; 7.5; 30 mg/kg/day) of 93% flutriafol in diet for 2 yr, study duration 2 yr) was “inactive; negative”, the carcinogen call (Species: Mouse, Strain/Sex: C57BL/10JfCD-1/Alpk (C57BL/10J)/Male (50/Group), Route: Oral, Dose: 0, 10, 50, 200 ppm (0; 1.5; 7.5; 30 mg/kg/day) of 93% flutriafol in diet for 2 yr, study duration 2 yr, Dose: 0, 10, 50, 200 ppm (0; 1.5; 7.5; 30 mg/kg/day) of 93% flutriafol in diet for 2 yr, study duration 2 yr) was “inactive; negative” and the carcinogen call (Species: Rat, Strain/Sex: Alpk:AP/Female (52/Group), Route: Oral, Dose: 0, 20, 200, 2000 ppm (0; 1; 10; 100 mg/kg/day) of 93% flutriafol in diet for 104 wk, study duration 104 wk, Dose: 0, 20, 200, 2000 ppm (0; 1; 10; 100 mg/kg/day) of 93% flutriafol in diet for 104 wk, study duration 104 wk) was “inactive; negative”. The carcinogen call (Species: Rat, Strain/Sex: Alpk:AP/Male (52/Group), Route: Oral, Dose: 0, 20, 200, 2000 ppm (0; 1; 10; 100 mg/kg/day) of 93% flutriafol in diet for 104 wk, study duration 104 wk, Dose: 0, 20, 200, 2000 ppm (0; 1; 10; 100 mg/kg/day) of 93% flutriafol in diet for 104 wk, study duration 104 wk) was “inactive; negative”.

`CCCCC(CC)COC(=O)CCCCC(=O)OCC(CC)CCCC` (centres undefined) was tested, and the carcinogen call (Species: MOUSE, Strain/Sex: B6C3F1/FEMALE, Route: ORAL, Dose: 0, 12000, 25000 PPM IN DIET FOR 102-104 WK (STUDY DURATION: 102-104 WK), Dose: 0, 12000, 25000 PPM IN DIET FOR 102-104 WK (STUDY DURATION: 102-104 WK), Tumor Site: Type of Lesion: LIVER: CARCINOMA, CARCINOMA OR ADENOMA) was “active; positive”, the carcinogen call (Species: MOUSE, Strain/Sex: B6C3F1/FEMALE, Route: ORAL, Dose: 0, 12000, 25000 PPM IN DIET FOR 103 WK (STUDY DURATION: 105-106 WK), Dose: 0, 12000, 25000 PPM IN DIET FOR 103 WK (STUDY DURATION: 105-106 WK), Tumor Site: Type of Lesion: LIVER: HEPATOCELLULAR CARCINOMA) was “active; positive” and the carcinogen call (Species: MOUSE, Strain/Sex: B6C3F1/MALE, Route: ORAL, Dose: 0, 12000, 25000 PPM IN DIET FOR 102-104 WK (STUDY DURATION: 102-104 WK), Dose: 0, 12000, 25000 PPM IN DIET FOR 102-104 WK (STUDY DURATION: 102-104 WK), Tumor Site: Type of Lesion: LIVER: CARCINOMA OR ADENOMA) was “active; positive”. The carcinogen call (Species: MOUSE, Strain/Sex: B6C3F1/MALE, Route: ORAL, Dose: 0, 12000, 25000 PPM IN DIET FOR 103 WK (STUDY DURATION: 104-106 WK), Dose: 0, 12000, 25000 PPM IN DIET FOR 103 WK (STUDY DURATION: 104-106 WK), Tumor Site: Type of Lesion: LIVER: HEPATOCELLULAR CARCINOMA, HEPATOCELLULAR ADENOMA OR CARCINOMA) was “active; positive”, the carcinogen call (Species: RAT, Strain/Sex: F344/FEMALE, Route: ORAL, Dose: 0, 12000, 25000 PPM IN DIET FOR 102-104 WK (STUDY DURATION: 102-104 WK), Dose: 0, 12000, 25000 PPM IN DIET FOR 102-104 WK (STUDY DURATION: 102-104 WK)) was “inactive; negative” and the carcinogen call (Species: RAT, Strain/Sex: F344/FEMALE, Route: ORAL, Dose: 0, 12000, 25000 PPM IN DIET FOR 103 WK (STUDY DURATION: 104-107 WK), Dose: 0, 12000, 25000 PPM IN DIET FOR 103 WK (STUDY DURATION: 104-107 WK)) was “inactive; negative”. For the same compound, the carcinogen call (Species: RAT, Strain/Sex: F344/MALE, Route: ORAL, Dose: 0, 12000, 25000 PPM IN DIET FOR 102-104 WK (STUDY DURATION: 102-104 WK), Dose: 0, 12000, 25000 PPM IN DIET FOR 102-104 WK (STUDY DURATION: 102-104 WK)) was “inactive; negative” and the carcinogen call (Species: RAT, Strain/Sex: F344/MALE, Route: ORAL, Dose: 0, 12000, 25000 PPM IN DIET FOR 103 WK (STUDY DURATION: 104-107 WK), Dose: 0, 12000, 25000 PPM IN DIET FOR 103 WK (STUDY DURATION: 104-107 WK)) was “inactive; negative”.

`NC(Cc1cnc[nH]1)C(=O)O` (centres undefined) was tested, and the carcinogen call (Species: RAT, Strain/Sex: F344/FEMALE, Route: ORAL, Dose: 0, 1.25, 2.5% IN DIET FOR 104 WK (STUDY DURATION: 107 WK), Dose: 0, 1.25, 2.5% IN DIET FOR 104 WK (STUDY DURATION: 107 WK)) was “inactive; negative” and the carcinogen call (Species: RAT, Strain/Sex: F344/MALE, Route: ORAL, Dose: 0, 1.25, 2.5% IN DIET FOR 104 WK (STUDY DURATION: 107 WK), Dose: 0, 1.25, 2.5% IN DIET FOR 104 WK (STUDY DURATION: 107 WK)) was “inactive; negative”.

For `COC(=O)C1=C(C)NC(C)=C(C(=O)OCC(C)(C)CN(C)Cc2ccccc2)C1c1cc([N+](=O)[O-])ccc1F` (centres undefined), the carcinogen call (Species: RAT, Strain/Sex: F344/FEMALE, Route: ORAL, Dose: 0, 0.67, 2, 6 MG/KG/D IN DIET FOR 104 WK (STUDY DURATION: 104 WK), Dose: 0, 0.67, 2, 6 MG/KG/D IN DIET FOR 104 WK (STUDY DURATION: 104 WK)) was “inactive; negative” and the carcinogen call (Species: RAT, Strain/Sex: F344/MALE, Route: ORAL, Dose: 0, 0.67, 2, 6 MG/KG/D IN DIET FOR 104 WK (STUDY DURATION: 104 WK), Dose: 0, 0.67, 2, 6 MG/KG/D IN DIET FOR 104 WK (STUDY DURATION: 104 WK)) was “inactive; negative”.

With `CCOC(=O)NCCOc1ccc(Oc2ccccc2)cc1` the carcinogen call (Species: Mouse, Strain/Sex: CD-1/Female (50/Group), Route: Oral, Dose: 0, 30, 110, 420 ppm of 96.6% fenoxycarb in diet for 80 wk, study duration 80 wk, Dose: 0, 30, 110, 420 ppm of 96.6% fenoxycarb in diet for 80 wk, study duration 80 wk) was “inactive; negative”, the carcinogen call (Species: Mouse, Strain/Sex: CD-1/Male (50/Group), Route: Oral, Dose: 0, 30, 110, 420 ppm of 96.6% fenoxycarb in diet for 80 wk, study duration 80 wk, Dose: 0, 30, 110, 420 ppm of 96.6% fenoxycarb in diet for 80 wk, study duration 80 wk, Tumor Site: Type of Lesion: Lung: alveolar/bronchial adenomas and carcinomas, significant at 420 ppm only) was “active; positive” and the carcinogen call (Species: Rat, Strain/Sex: Crl:CD(SD)BR/Female (50/Group), Route: Oral, Dose: 0, 200, 600, 1800 ppm of 96.6% fenoxycarb in diet for 104 wk, study duration 104 wk, Dose: 0, 200, 600, 1800 ppm of 96.6% fenoxycarb in diet for 104 wk, study duration 104 wk) was “inactive; negative”. For the same compound, the carcinogen call (Species: Rat, Strain/Sex: Crl:CD(SD)BR/Male (50/Group), Route: Oral, Dose: 0, 200, 600, 1800 ppm of 96.6% fenoxycarb in diet for 104 wk, study duration 104 wk, Dose: 0, 200, 600, 1800 ppm of 96.6% fenoxycarb in diet for 104 wk, study duration 104 wk) was “inactive; negative”.

For `C[C@@H]1C[C@H](C)CN(S(=O)(=O)c2ccc(Cl)c(C(=O)O)c2)C1`, the carcinogen call (Species: RAT, Strain/Sex: F344/MALE, Route: ORAL, Dose: 0.2% IN DIET FOR 7.5 MO, THEN 0.1% FOR 4 MO, THEN 0.05% FOR 4 MO, Tumor Site: Type of Lesion: LIVER: HEPATOCELLULAR CARCINOMA) was “active; positive”.

— PubChem BioAssay AID1259411 (Chemical Carcinogenesis Research Information System (CCRIS), 2018)
